The values that follow come from patent publication US9290457B2, “Substituted dihydropyrimidinones and their use as inhibitors of neutrophil elastase activity” (Boehringer Ingelheim International GmbH, priority 2014, dated 2016).

This assay addresses neutrophil elastase (Homo sapiens (Human), UniProt P08246). The experiment in a line: Human Neutrophil Elastase Assay. The class given is biochemical. The following applies: substrate MeOSuc-Ala-Ala-Pro-Val-AMC. The protocol: Human Neutrophil Elastase Assay
All other materials were of the highest grade commercially available.
The following buffers were used: Compound buffer: 100 mM Tris, 500 mM NaCl, adjusted to pH 7.5; Assay buffer: 100 mM Tris, 500 mM NaCl, adjusted to pH 7.5, containing 0.01% BSA.
Assay conditions: Test compounds were prediluted in DMSO and subsequently in compound buffer (5% DMSO final). […] After inactivation of the enzyme, fluorescence intensities were measured at 380 nm excitation and 460 nm emission wavelengths.
Each plate contains wells with a high value control (DMSO+enzyme+substrate) and wells with a low value control (DMSO+inactivated enzyme+substrate). IC50 values were estimated using a sigmoidal concentration response curve with variable slope. Means of low values were taken as 0%, means of high values as 100%.

Where only a bound is given, the exact number is not on record here.

neutrophil elastase, sequence (P08246 30-247): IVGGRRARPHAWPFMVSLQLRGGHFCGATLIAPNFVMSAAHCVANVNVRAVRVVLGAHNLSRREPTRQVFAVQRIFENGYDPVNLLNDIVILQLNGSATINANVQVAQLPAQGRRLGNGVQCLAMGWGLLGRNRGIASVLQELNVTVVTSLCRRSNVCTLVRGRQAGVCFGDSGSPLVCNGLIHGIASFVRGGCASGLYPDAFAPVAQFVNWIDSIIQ

In general, IC50 refers to the midpoint of a concentration-inhibition curve. Read a low IC50 as inhibition by little substance. `CCOC(=O)C1=C(C)N(c2cccc(C(F)(F)F)c2)C(=O)N(C)C1c1ccc(C#N)cc1-c1ccco1` (stereo not shown) [Example 14, 4-(4-Cyano-2-furan-2-yl-phenyl)-3,6-dimethyl-2-oxo-1-(3-trifluoromethyl-phenyl)-1,2,3,4-tetrahydro-pyrimidine-5-carboxylic acid ethyl ester]: inhibition was half-maximal at 3.7 nM (IC50).

`CC(=O)C1=C(C)N(c2cccc(C(F)(F)F)c2)C(=O)N(C)C1c1ccc(C#N)cc1C(=O)N(C)Cc1ccnn1C` (stereo not shown) [Example 1.76] had an IC50 of under 1 nM.

For the compound `CC(=O)C1=C(C)N(c2cccc(C(F)(F)F)c2)C(=O)N(C)C1c1ccc(C#N)cc1C(=O)NCCN(C)C` (stereo not shown) [Example 1.84], the IC50 was under 1 nM. In turn, `CCOC(=O)C1=C(C)N(c2cccc(C(F)(F)F)c2)C(=O)N(C)C1c1ccc(C#N)cc1C(=O)N1CCN(C(C)C)CC1` (stereo not shown) [Example 3.45] returned an IC50 of 1.8 nM. For `CC(=O)C1=C(C)N(c2cccc(C(F)(F)F)c2)C(=O)N(C)C1c1ccc(C#N)cc1-c1nnco1` (stereo not shown) [Example 6, 4-[5-Acetyl-3,6-dimethyl-2-oxo-1-(3-trifluoromethyl-phenyl)-1,2,3,4-tetrahydro-pyrimidin-4-yl]-3-[1,3,4]oxadiazol-2-yl-benzonitrile] the value was under 1 nM. For `CC(=O)C1=C(C)N(c2cccc(C(F)(F)F)c2)C(=O)N(C)C1c1ccc(C#N)cc1-c1ccoc1` (stereo not shown) [Example 5, 4-[5-Acetyl-3,6-dimethyl-2-oxo-1-(3-trifluoromethyl-phenyl)-1,2,3,4-tetrahydro-pyrimidin-4-yl]-3-furan-3-yl-benzonitrile] the value was 2.6 nM. For `CC(=O)C1=C(C)N(c2cccc(C(F)(F)F)c2)C(=O)N(C)C1c1ccc(C#N)cc1C(=O)N1CCCC1` (stereo not shown) [Example 1.11] the value was under 1 nM.

On to `CC(=O)C1=C(C)N(c2cccc(C(F)(F)F)c2)C(=O)N(C)C1c1ccc(C#N)cc1C(=O)N1CC[C@H](N(C)C)C1` (stereo partly shown) [Example 1.64], for which the IC50 is under 1 nM. `CCOC(=O)C1=C(C)N(c2cccc(C(F)(F)F)c2)C(=O)N(C)C1c1ccc(C#N)cc1C(=O)NCC(F)(F)F` (stereo not shown) [Example 3.26] registered an IC50 of 1.6 nM. In the case of `CCOC(=O)C1=C(C)N(c2cccc(C(F)(F)F)c2)C(=O)N(C)C1c1ccc(C#N)cc1C(=O)NC` (stereo not shown) [Example 3.4] it was 3 nM; in that of `CCOC(=O)C1=C(C)N(c2cccc(C(F)(F)F)c2)C(=O)N(C)C1c1ccc(C#N)cc1C(=O)NC1CC1` (stereo not shown) [Example 3.8], 3 nM; in that of `CC(=O)C1=C(C)N(c2cccc(C(F)(F)F)c2)C(=O)N(C)C1c1ccc(C#N)cc1C(=O)NC1CCN(C(C)C)C1` (stereo not shown) [Example 1.83], 1.2 nM. In turn, `CCOC(=O)C1=C(C)N(c2cccc(C(F)(F)F)c2)C(=O)N(C)C1c1ccc(C#N)cc1C(=O)NC1CCOC1` (stereo not shown) [Example 3.21] returned an IC50 of 1.4 nM. Take `CCOC(=O)C1=C(C)N(c2cccc(C(F)(F)F)c2)C(=O)N(C)C1c1ccc(C#N)cc1C(=O)NCCNC` (stereo not shown) [Example 4.9]: the IC50 is under 1 nM. `COCCCNC(=O)c1cc(C#N)ccc1C1C(C(C)=O)=C(C)N(c2cccc(C(F)(F)F)c2)C(=O)N1C` (stereo not shown) [Example 1.20]: the IC50 is under 1 nM. For `CN[C@H]1CCN(C(=O)c2cc(C#N)ccc2C2C(C(C)=O)=C(C)N(c3cccc(C(F)(F)F)c3)C(=O)N2C)C1` (stereo partly shown) [Example 2.16] the value was 1.2 nM; for `CC(=O)C1=C(C)N(c2cccc(C(F)(F)F)c2)C(=O)N(C)C1c1ccc(C#N)cc1C(=O)NCc1cnco1` (stereo not shown) [Example 1.40], under 1 nM. In the case of `CCOC(=O)C1=C(C)N(c2cccc(C(F)(F)F)c2)C(=O)N(C)C1c1ccc(C#N)cc1C(=O)NC1COC1` (stereo not shown) [Example 3.14], the IC50 is under 1 nM. For `CCOC(=O)C1=C(C)N(c2cccc(C(F)(F)F)c2)C(=O)N(C)C1c1ccc(C#N)cc1C(=O)N(C)CCN` (stereo not shown) [Example 4.8] the value was under 1 nM; for `CCOC(=O)C1=C(C)N(c2cccc(C(F)(F)F)c2)C(=O)N(C)C1c1ccc(C#N)cc1-c1cn[nH]c1` (stereo not shown) [Example 14.2], 1.9 nM. In the case of `CCOC(=O)C1=C(C)N(c2cccc(C(F)(F)F)c2)C(=O)N(C)C1c1ccc(C#N)cc1C(=O)N[C@@H]1CCNC1` (stereo partly shown) [Example 4.11] it was 1.1 nM; in that of `CC(=O)C1=C(C)N(c2cccc(C(F)(F)F)c2)C(=O)N(C)C1c1ccc(C#N)cc1C(=O)NCC(F)F` (stereo not shown) [Example 1.17], under 1 nM; in that of `CC(=O)C1=C(C)N(c2cccc(C(F)(F)F)c2)C(=O)N(C)C1c1ccc(C#N)cc1C(=O)NCc1ncco1` (stereo not shown) [Example 1.37], under 1 nM. In the case of `CC(=O)C1=C(C)N(c2cccc(C(F)(F)F)c2)C(=O)N(C)C1c1ccc(C#N)cc1C(=O)N1CCOCC1` (stereo not shown) [Example 1.3] it was 2.25 nM; in that of `CCNC(=O)c1cc(C#N)ccc1C1C(C(=O)OCC)=C(C)N(c2cccc(C(F)(F)F)c2)C(=O)N1C` (stereo not shown) [Example 3.5], 3 nM. `CCOC(=O)C1=C(C)N(c2cccc(C(F)(F)F)c2)C(=O)N(C)C1c1ccc(C#N)cc1C1=CCNCC1` (stereo not shown) [Example 15, 4-[4-Cyano-2-(1,2,3,6-tetrahydro-pyridin-4-yl)-phenyl]-3,6-dimethyl-2-oxo-1-(3-trifluoromethyl-phenyl)-1,2,3,4-tetrahydro-pyrimidine-5-carboxylic acid ethyl ester] displayed an IC50 of 3 nM. In the case of `CC(=O)C1=C(C)N(c2cccc(C(F)(F)F)c2)C(=O)N(C)C1c1ccc(C#N)cc1-c1cncc(F)c1` (stereo not shown) [Example 5.15], the IC50 is under 1 nM. `CCOC(=O)C1=C(C)N(c2cccc(C(F)(F)F)c2)C(=O)N(C)C1c1ccc(C#N)cc1C(=O)N(C)CCN(C)C` (stereo not shown) [Example 3.36] gave an IC50 of under 1 nM. Compound `CC(=O)C1=C(C)N(c2cccc(C(F)(F)F)c2)C(=O)N(C)C1c1ccc(C#N)cc1-c1ccncc1` (stereo not shown) [Example 5.10] came in with an IC50 of 1.3 nM. For `CC(=O)C1=C(C)N(c2cccc(C(F)(F)F)c2)C(=O)N(C)C1c1ccc(C#N)cc1C(=O)NCc1cnn(C)c1` (stereo not shown) [Example 1.54] the value was under 1 nM.

`COCCCN(C)C(=O)c1cc(C#N)ccc1C1C(C(C)=O)=C(C)N(c2cccc(C(F)(F)F)c2)C(=O)N1C` (stereo not shown) [Example 1.27] gave an IC50 of under 1 nM. In the case of `CCOC(=O)C1=C(C)N(c2cccc(C(F)(F)F)c2)C(=O)N(C)C1c1ccc(C#N)cc1C(=O)NCC(C)(C)O` (stereo not shown) [Example 3.23] it was 1.3 nM; in that of `CCOC(=O)C1=C(C)N(c2cccc(C(F)(F)F)c2)C(=O)N(C)C1c1ccc(C#N)cc1C(=O)N1CCOCC1` (stereo not shown) [Example 3.22], 2 nM. For `CCOC(=O)C1=C(C)N(c2cccc(C(F)(F)F)c2)C(=O)N(C)C1c1ccc(C#N)cc1C(=O)N(C)C` (stereo not shown) [Example 3, 4-(4-Cyano-2-dimethylcarbamoyl-phenyl)-3,6-dimethyl-2-oxo-1-(3-trifluoromethyl-phenyl)-1,2,3,4-tetrahydro-pyrimidine-5-carboxylic acid ethyl ester], the IC50 is under 1 nM.

With `CCOC(=O)C1=C(C)N(c2cccc(C(F)(F)F)c2)C(=O)N(C)C1c1ccc(C#N)cc1C(=O)N1CCN(C2CC2)CC1` (stereo not shown) [Example 3.42], half-maximal inhibition (IC50) required 2.9 nM. As to `CC(=O)C1=C(C)N(c2cccc(C(F)(F)F)c2)C(=O)N(C)C1c1ccc(C#N)cc1C(=O)NC1CCN(C)C1` (stereo not shown) [Example 1.43], the IC50 is under 1 nM. For `CC(=O)C1=C(C)N(c2cccc(C(F)(F)F)c2)C(=O)N(C)C1c1ccc(C#N)cc1C(=O)N(C)Cc1ccno1` (stereo not shown) [Example 1.60] the value was under 1 nM.
